Reference: patent US7348330B2, “1-azabicyclo [2,2,2] octan-3-one derivatives” (Aprea AB, priority 2000, dated 2008)

Tests used:
p53-null Saos-2 cells = experiment: FACS analysis of apoptosis (sub-G1, propidium iodide); type: cell-based, human; set-up: dose or concentration left out as unconfirmed
Method: Induction of apoptosis was determined by FACS analysis of ethanol fixed cells stained with propidium iodide (PI) as percentage of a sub-G1 population. […] The percentage of dead cells in non-treated cultures and in controls treated with caspase inhibitors only was subtracted. […] Hoechst staining was used to stain cell nuclei. […] The percentage of apoptotic cells was measured by FACS analysis as it was described in Figure.
(§1) Cells were placed on 12-well plate at a density of 30000/cm^2 and treated with compounds. After 48 h incubation cells were harvested by trypsinization, fixed with 70% ethanol, treated with RNase A (0.25 mg/ml) and stained with propidium iodide (0.02 mg/ml). Samples were analyzed on a Becton Dickinson FACScan. Data were analyzed by the CellQuest software, version 3.2.1.

[1] = system: recombinant wild type and mutant p53 proteins; experiment: ELISA of p53 conformation upon heating 30 min at 37° C.; type: biochemical, human; conditions: for appearance of PAb240 epitope (unfolding) upon heating: 37° C.; for PAb1620 epitope after heating: 30 min at 37° C.; for DO-1 non-conformational epitope: incubation with compounds
Method: Absorbance of the control sample incubated on ice was taken as 100%.
(§2) 20 ng of GST-wtp53, GST-mtp53-175 and GST-mtp53-248 were heated at 37° C. for 30 min or kept on ice. The procedure was performed with or without tested compounds. The ELISA analyses were done as described by (Foster et al., 1999). Briefly, after the treatment, samples were diluted with coating buffer (150 mM KCL, 25 mM HEPES) supplemented with 10 mM DTT. The whole mixture was apply to ELISA plates (MaxiSorp, Nunc) and incubated at +4° C. for 35 min. The wells were washed with coating buffer. The wells were blocked by 5% skim milk in PBS by incubating at +4° C. for 1 h. […] Samples were incubated at +4° C. for 30 min. Wells were rinsed twice with PBS. After that, a secondary antibody (anti-mouse, conjugated with horse radish peroxidase) was incubated with samples at +4° C. for 30 min. Then plates were washed 5 times with PBS and a peroxidase substrate was added. An absorbance at λ405 nm was monitored by ELISA reader.

[2] = biological target: T1, GST-wild type p53 protein (Homo sapiens, UniProt P04637); experiment: ELISA with conformation-specific antibodies, recombinant protein; type: biochemical
T1 construct: made in house
T1 sequence (P04637 whole entry): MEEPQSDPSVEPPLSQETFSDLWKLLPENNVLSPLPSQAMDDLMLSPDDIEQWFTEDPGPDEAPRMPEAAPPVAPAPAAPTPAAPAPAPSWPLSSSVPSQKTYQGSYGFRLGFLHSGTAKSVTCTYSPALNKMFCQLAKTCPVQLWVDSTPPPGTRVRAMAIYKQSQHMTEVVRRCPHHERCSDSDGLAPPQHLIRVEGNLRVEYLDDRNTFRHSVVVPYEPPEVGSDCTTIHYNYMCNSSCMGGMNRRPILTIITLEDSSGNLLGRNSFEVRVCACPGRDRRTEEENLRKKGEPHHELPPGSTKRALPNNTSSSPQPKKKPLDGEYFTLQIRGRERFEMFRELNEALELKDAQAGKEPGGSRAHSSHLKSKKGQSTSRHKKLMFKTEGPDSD
Method: as §2

SKOV-His-175 cells = experiment: WST-1 proliferation assay; type: cell-based, human; conditions: for increase in cell survival by cycloheximide pretreatment: cycloheximide before addition of compound
Method: FIG. 13B, PRIMA-3 reactivated the hot spot p53 mutant Trp-248 in H1299 lung adenocarcinoma cells. FIG. 13C, MIRA-2 and MIRA-3 reactivated His-175 mutant of p53 in SKOV cells. […] FIG. 13G, PRIMA-2 reactivated mutant p53 His-273 in SKOV cells.
(§3) Saos-2-His-273 cell line stably transfected with construct allowing expression of mutant His-273 p53 in a tetracycline-dependent manner was used for screening (Selivanova et al., 1997). p53 expression was inhibited by incubation of cells with doxycycline (5 μg/ml). Cells were grown in 96-well plates at a density of 3000 cells per well with or without doxycycline and treated with 25 μM of the compounds from the NCI library of low molecular weight (LMW) compounds. After 48 hours of incubation the proliferative cell reagent WST-1 (Roche) was added to the cells. The degree of WST-1 reduction, which reflects cell viability, was measured by microplate reader at λ490 nm according to the manufacturer (Roche).
The cycloheximide treatment renders SKOV-His-175 resistant to MIRA-1 as well, resulting in about 4 fold increase in cell survival. […] In addition, SKOV-His-175 cells were at least 3 fold more sensitive to treatment with MIRA-1 in comparison with SKOV-His-175-22/23 cells.
Growth suppression by analogs in the presence or absence of p53 expression was measured as described in FIG. 1. […] Analogs of MIRA-1 induced mutant p53-dependent growth suppression in SKOV-His-175 cells (FIG. 13C).

[3] = biological target: T1, GST-wild type p53 protein; experiment: Band shift assay, heat-inactivated protein; type: biochemical; conditions: protein inactivated at 37° C. for 30 min
Method: Lane 3, inactivation of DNA binding of wtp53 by heating.
The GST-p53 proteins were prepared as described (Selivanova et al., 1997). Band shift assays were performed in binding buffer containing 100 mM HEPES pH 7.5, 50 mM KCl , 1 mg/ml BSA, 0.1% Triton X-100, 2 mM MgCl2 and 1 mM DTT essentially as in (Selivanova et al., 1996).
Substitution of arginin at position 175 causes a gross unfolding of the DNA binding core domain of p53. Therefore, the restoration of the DNA binding of this mutant was regarded as an exceptionally difficult task.

[4] = system: KRC/Y renal carcinoma cells (Phe-176 mutant p53); experiment: FACS analysis of apoptosis; type: cell-based, human
Method: The percentage of apoptotic cells was detected by FACS analysis as it was described in FIG. 3A.
as §1
Thus, it appears that the defect caused by substitution of the Cys residue at position 176 is irreversible. The substitution of this Cys residue abolishes the binding of a Zn atom which holds together the DNA-binding loops of the p53 core domain. Therefore, the unfolding of this mutant p53 protein is probably too extensive to be restored.

Saos-2-His-273 cells = experiment: WST-1 growth suppression assay; type: cell-based, human
Method: as §3
as §3, with “1997).” for “1997). p53 expression was inhibited by incubation of cells with doxycycline (5 μg/ml).”, “doxycycline. The treatment was done at a concentration of” for “doxycycline and treated with”, “each chemical” for “the compounds”, “is proportional to the” for “reflects”, “by a” for “by”
Saos-2-His-273 cells grown in the presence or absence of doxycycline and parental Saos-2 cells were treated with the structural analogs and analyzed as described above. The effect of structural analogs on cell growth was tested using different concentrations of the compounds, ranging from 2.5 to 25 μM. Compounds MIRA-2, MIRA-3 and PRIMA-2, PRIMA-3 were identified that were able to suppress the growth of Saos-2-His-273 cells expressing mutant p53 (tet−). […] In addition, compounds MIRA-2 and MIRA-3 suppressed the growth of cells in a mutant p53-dependent manner at 10 μM concentration, in contrast to 25 μM of compound MIRA-1 required for the selective effect.

Row | SMILES | induction of apoptosis (p53-null Saos-2 cells; 48 hours) | appearance of PAb240 epitope (unfolding) upon heating [1] | PAb1620 epitope after heating [1] | DO-1 non-conformational epitope [1] | increase in the PAb1620+ fraction [2] | reduction in PAb240+ fraction [2] | sensitivity of SKOV-His-175 cells in comparison with SKOV-His-175-22/23 cells (SKOV-His-175 cells) | increase in cell survival by cycloheximide pretreatment (SKOV-His-175 cells) | restoration of specific DNA binding [3] | induction of apoptosis compared to Saos-2-His-273 cells ([4]; 50 μM) | concentration at which growth of mutant p53 containing cells is selectively suppressed (Saos-2-His-273 cells; tet− vs tet+ and parental Saos-2, 48 hours, 2.5 to 25 μM tested) | induction of apoptosis (p53-null Saos-2 cells; 50, 75 and […], no p53 expression) | DO-1+ fraction [2] | induction of apoptosis compared to Saos-2-His-273 cells ([4]; 75 μM) | growth of cells expressing mutant p53 (growth curves) (Saos-2-His-273 cells; mutant p53 expressed) | growth of cells in the absence of mutant p53 expression (Saos-2-His-273 cells; no mutant p53 expression)
1 | CCC(=O)OCN1C(=O)C=CC1=O [MIRA-1] | not in p53-null Saos-2 cells | able to prevent unfolding | preserve the conformation-dependent epitope | not affected | About 40% | ~20% | at least 3 fold | about 4 fold | able to restore | much less prominent | 25 µM | – | – | – | – | –
2 | O=C1C2CCN(CC2)C1(CO)CO [PRIMA-1, 2,2-bis(hydroxymethyl)-1-azabicyclo[2,2,2]octan-3-one] | – | able to prevent unfolding | preserve the conformation-dependent epitope | not affected | 40% | corresponding decrease | – | 4 fold | able to restore | – | – | much less efficient | remained unchanged | much less prominent | completely inhibited growth | minor reduction in growth rate
